Structures are written as SMILES.

In this assay the target is HIF PHD2 (Homo sapiens, UniProt Q9GZT9). Briefly: PHD2 inhibition assay (TR-FRET, VCB-Eu detection of hydroxylated P564-HIF1α peptide). It is filed as biochemical. To be noted: 2 nM PHD2, 100 nM P564-HIF1α peptide, 0.25 μM 2-oxoglutarate, 100 μM FeCl2, 2 mM ascorbic acid. The protocol:
Inhibition of HIF PHD2 activity was quantified utilizing the TR-FRET technology. HIF PHD2 catalyzes a hydroxyl modification on the proline residue of the P564-HIF1α peptide substrate (Biotin-DLEMLAPYIPMDDDFQL (SEQ ID NO: 7)) resulting in recognition and binding of the europylated Von Hippel-Lindau protein (pVHL), elongin B and elongin C heterotrimeric (VCB-Eu) complex.
The PHD2 inhibition assay was executed by addition of freshly dissolved FeCl2 to 178.57 μM (100 μM final concentration) in PHD2 Reaction Buffer containing 30 mM MES, pH 6, 10 mM NaCl, 0.25% Brij-35, 0.01% BSA, and 1% DMSO. 28 μL of the iron solution and 2 μL of inhibitor compounds serially diluted in 100% DMSO (5% DMSO final) were added to black polypropylene 96-well microtiter plates. To that, 10 μL of 10 nM PHD2 (2 nM final) was added to all wells of the plate except for the 8 wells of column 12 (LO control), and allowed to incubate at room temperature on the shaker for one hour. Column 6 was the HI control containing PHD2 enzyme and 5% DMSO vehicle, but no inhibitor compound. To initiate the PHD2 enzymatic reaction, 10 μL of a solution containing 500 nM P564-HIF1α peptide (100 nM final), 10 mM ascorbic acid (2 mM final), and 1.25 μM 2-oxoglutarate (α-ketoglutarate; 0.25 μM final) in PHD2 Reaction Buffer was added to all wells of the plate and allowed to incubate on the shaker at room temperature for one hour.
The reaction was terminated by addition of 25 μL TR-FRET Buffer (50 mM TRIS-HCl, pH 9, 100 mM NaCl, 0.05% BSA, and 0.5% Tween-20) containing 150 mM succinate (product inhibitor; 50 mM final), 75 nM streptavidin-APC (25 nM final), and 7.5 nM VCB-Eu (2.5 nM final). The TR-FRET detection reagents were placed on a shaker for 1 hour to reach binding equilibrium before reading on the Discovery platform (PerkinElmer). Europium is excited at 315 nm and phosphoresces at 615 nm with a large Stoke's shift. APC, in turn, emits at 655 nm upon excitation at 615 nm. The TR-FRET signal is measured as the ratio of the APC 655 nm signal divided by the internal europium reference 615 nm emission signal.
The POC (percentage of control) was determined by comparing the signal from hydroxylated peptide substrate in the enzyme reaction containing inhibitor compound with that from PHD2 enzyme with DMSO vehicle alone (HI control), and no enzyme (LO control). POC was calculated using the formula: % control (POC)=(cpd−average LO)/(average HI−average LO)*100. Data (consisting of POC and inhibitor concentration in μM) was fitted to a 4-parameter equation (y=A+((B−A)/(1+((x/C)^D))), where A is the minimum y (POC) value, B is the maximum y (POC), C is the x (cpd concentration) at the point of inflection and D is the slope factor) using a Levenburg-Marquardt non-linear regression algorithm.
(In general: TR-FRET usually uses a lanthanide donor and a delayed reading to cut background.)

Chain of HIF PHD2 (Q9GZT9 whole entry): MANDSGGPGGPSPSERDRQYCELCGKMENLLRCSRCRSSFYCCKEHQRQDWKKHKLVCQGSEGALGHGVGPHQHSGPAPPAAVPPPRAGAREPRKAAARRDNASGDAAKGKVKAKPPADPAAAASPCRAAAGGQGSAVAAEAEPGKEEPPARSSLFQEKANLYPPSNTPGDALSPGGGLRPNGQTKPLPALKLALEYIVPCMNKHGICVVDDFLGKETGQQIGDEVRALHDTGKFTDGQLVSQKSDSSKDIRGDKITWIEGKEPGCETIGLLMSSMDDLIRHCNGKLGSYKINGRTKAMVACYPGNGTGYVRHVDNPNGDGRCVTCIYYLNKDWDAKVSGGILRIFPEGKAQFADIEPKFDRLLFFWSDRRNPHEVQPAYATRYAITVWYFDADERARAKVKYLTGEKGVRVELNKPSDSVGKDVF

Broadly, the IC50 is the concentration needed to halve the response being measured. A higher IC50 goes with weaker potency in that assay. For `O=C(O)CNC(=O)C1=C(O)c2cc(C(F)(F)F)ccc2C2(CCOCC2)C1=O` [Example 3, N-((4-Hydroxy-2-oxo-6-(trifluoromethyl)-2′,3′,5′,6′-tetrahydro-2H-spiro[naphthalene-1,4′-pyran]-3-yl)carbonyl)glycine], the IC50 is less than 100 nM.

As for `CC(C)(NC(=O)C1=C(O)c2cc(Cl)ccc2C2(CCOCC2)C1=O)C(=O)O` [Example 54, N-((6-Chloro-4-hydroxy-2-oxo-2′,3′,5′,6′-tetrahydro-spiro[naphthalene-1,4′-pyran]-3-yl)carbonyl)-2-methylalanine], the IC50 was more than 10000 nM.

Consider `CC1(C#N)C(=O)C(C(=O)NCC(=O)O)=C(O)c2ccc(F)cc21` (stereo not shown) [Example 130, 2-(1-cyano-7-fluoro-4-hydroxy-1-methyl-2-oxo-1,2-dihydronaphthalene-3-carboxamido) acetic acid], for which the IC50 is less than 100 nM.

As to `COCC#Cc1ccc2c(c1)C(C)(C)C(=O)C(C(=O)NCC(=O)O)=C2O` [Example 116, 2-(2-hydroxy-7-(3-methoxyprop-1-ynyl)-1,1-dimethyl-4-oxo-1,4-dihydronaphthalene-3-carboxamido) acetic acid], the IC50 was less than 100 nM.

Turning to `C[C@@]1(c2ccccc2)C(O)=C(C(=O)NCC(=O)O)C(=O)c2ccccc21` (single isomer, unassigned) [Example 114, N-(((4S)-3-Hydroxy-4-methyl-1-oxo-4-phenyl-1,4-dihydro-2-naphthalenyl)carbonyl)glycine or N-(((4R)-3-Hydroxy-4-methyl-1-oxo-4-phenyl-1,4-dihydro-2-naphthalenyl)carbonyl)glycine], the IC50 was in the range of 100 to 500 nM.

Consider `CCCCCCCCc1ccc2c(c1)C(C)(C)C(=O)C(C(=O)NCC(=O)O)=C2O` [Example 115, 2-(2-hydroxy-1,1-dimethyl-7-octyl-4-oxo-1,4-dihydronaphthalene-3-carboxamido) acetic acid], for which the IC50 is 1000 to 10000 nM.

For the compound `CC1(C)C(=O)C(C(=O)NCC(=O)O)=C(O)c2ccc(OCc3ccccc3)c(F)c21` [Example 20, N-((8-Fluoro-4-hydroxy-1,1-dimethyl-2-oxo-7-((phenylmethyl)oxy)-naphthalen-3-yl)carbonyl)glycine], the concentration for half-maximal inhibition (IC50) is 100 to 500 nM.

As to `O=C(O)CNC(=O)C1=C(O)c2cc(Cl)ccc2[C@]2(CCCOC2)C1=O` [Example 76, N-(((1S)-6-Chloro-4-hydroxy-2-oxo-5′,6′-dihydro-spiro[naphthalene-1,3′-pyran]-3-yl)carbonyl)glycine], the IC50 was 100 to 500 nM.

As to `Cc1ccc2c(c1)C(O)=C(C(=O)NCC(=O)O)C(=O)C2(C)C` [Example 61, N-((6-Methyl-4-hydroxy-1,1-dimethyl-2-oxo-naphthalen-3-yl)carbonyl)glycine], the IC50 was less than 100 nM.

`CC1(c2ccc(Cl)cc2)C(=O)C(C(=O)NCC(=O)O)=C(O)c2cc(Cl)ccc21` (stereo not shown) [Example 34, N-((6-Chloro-1-(4-chlorophenyl)-4-hydroxy-1-methyl-2-oxo-naphthalen-3-yl)carbonyl)glycine] gave a half-maximal inhibitory concentration (IC50) of 100 to 500 nM.

Compound `O=C(O)CNC(=O)C1=C(O)c2cc(Cl)ccc2[C@]2(CCOC2)C1=O` [Example 11, N-(((3S)-6′-Chloro-4′-hydroxy-2′-oxo-4,5-dihydro-spiro[furan-3,1′-naphthalen]-3′-yl)carbonyl)glycine] displayed an IC50 of less than 100 nM.

As to `Cc1ccccc1-c1ccc2c(c1)C(O)=C(C(=O)NCC(=O)O)C(=O)C2(C)C` [Example 65, N-((6-(2-Methylphenyl)-4-hydroxy-1,1-dimethyl-2-oxo-naphthalen-3-yl)carbonyl)glycine], the IC50 was in the range of 500 to 1000 nM.

The compound `Cc1ccc(-c2ccc3c(c2)C(O)=C(C(=O)NCC(=O)O)C(=O)C3(C)C)c(F)n1` [Example 6, N-((6-(2-Fluoro-6-methyl-3-pyridinyl)-4-hydroxy-1,1-dimethyl-2-oxo-naphthalen-3-yl)carbonyl)glycine] gave a half-maximal inhibitory concentration (IC50) of 100 to 500 nM.

As to `CC1(C)C(=O)C(C(=O)NCC(=O)O)=C(O)c2cc(-c3cccnc3)ccc21` [Example 5, N-((4-Hydroxy-1,1-dimethyl-2-oxo-6-(3-pyridinyl)-naphthalen-3-yl)carbonyl)glycine], the IC50 was less than 100 nM.

In the case of `CC1(C)C(=O)C(C(=O)NCC(=O)O)=C(O)c2cc(Cl)c(F)cc21` [Example 92, N-((6-Chloro-7-fluoro-4-hydroxy-1,1-dimethyl-2-oxo-naphthalen-3-yl)carbonyl)glycine], the IC50 is less than 100 nM.

Consider `CC1(C#N)C(=O)C(C(=O)NCC(=O)O)=C(O)c2ccccc21` (stereo not shown) [Example 28, N-((1-Cyano-4-hydroxy-1-methyl-2-oxo-naphthalen-3-yl)carbonyl)glycine], for which the concentration for half-maximal inhibition (IC50) is less than 100 nM.

In turn, `CC1(C)C(=O)C(C(=O)NCC(=O)O)=C(O)c2cc(-c3ccc(Cl)cc3)ccc21` [Example 38, N-((6-(4-Chlorophenyl)-4-hydroxy-1,1-dimethyl-2-oxo-naphthalen-3-yl)carbonyl)glycine] showed an IC50 of 500 to 1000 nM.

For the compound `CC1(C)C(=O)C(C(=O)NCC(=O)O)=C(O)c2ccccc21` [Example 63, N-((4-Hydroxy-1,1-dimethyl-2-oxo-naphthalen-3-yl)carbonyl)glycine], the IC50 is less than 100 nM.

In turn, `CC1(C)C(=O)C(C(=O)NCC(=O)O)=C(O)c2ccc(C#Cc3cccnc3)cc21` [Example 117, 2-(2-hydroxy-1,1-dimethyl-4-oxo-7-(2-(pyridin-3-yl)ethynyl)-1,4-dihydronaphthalene-3-carboxamido) acetic acid] yielded an IC50 of less than 100 nM.

Compound `O=C(O)CNC(=O)C1=C(O)c2cc(Cl)ccc2[C@@]2(CCCOC2)C1=O` [Example 77, N-(((1R)-6-Chloro-4-hydroxy-2-oxo-5′,6′-dihydro-spiro[naphthalene-1,3′-pyran]-3-yl)carbonyl)glycine] had an IC50 of less than 100 nM.

`CC(C)COc1ccc2c(c1F)C(C)(C)C(=O)C(C(=O)NCC(=O)O)=C2O` [Example 21, N-((8-Fluoro-4-hydroxy-1,1-dimethyl-7-((2-methylpropyl)oxy)-2-oxo-naphthalen-3-yl)carbonyl)glycine] gave an IC50 of 100 to 500 nM.

In turn, `C[C@@]1(C#N)C(=O)C(C(=O)CCC(=O)O)=C(O)c2cc(Cl)ccc21` (single isomer, unassigned) [Example 120, 4-(7-chloro-4-cyano-1-hydroxy-4-methyl-3-oxo-3,4-dihydronaphthalen-2-yl)-4-oxobutanoic acid] registered an IC50 of 1000 to 10000 nM.

The compound `O=C(O)CNC(=O)C1=C(O)c2cc(Cl)ccc2C2(CCN(Cc3ccccc3)CC2)C1=O` [Example 71, N-((6-Chloro-4-hydroxy-2-oxo-2′,3′,5′,6′-tetrahydro-N-benzyl-spiro[naphthalene-1,4′-piperidine]-3-yl)carbonyl)glycine] returned an IC50 of less than 100 nM.

`O=C(O)CNC(=O)C1=C(O)c2cc(Cl)ccc2C2(CCN(C(=O)c3ccccc3)CC2)C1=O` [Example 91, N-((6-Chloro-4-hydroxy-2-oxo-1′-(phenylcarbonyl)-spiro[naphthalene-1,4′-piperidin]-3-yl)carbonyl)glycine] yielded an IC50 of less than 100 nM.

Take `CC1(C)C(=O)C(C(=O)NCC(=O)O)=C(O)c2c(Cl)cccc21` [Example 82, N-((5-Chloro-4-hydroxy-1,1-dimethyl-2-oxo-naphthalen-3-yl)carbonyl)glycine]: the IC50 is less than 100 nM.

In turn, `COc1ccc2c(c1)C(O)=C(C(=O)NCC(=O)O)C(=O)C21CCOCC1` [Example 16, N-((4-Hydroxy-6-(methyloxy)-2-oxo-2′,3′,5′,6′-tetrahydro-spiro[naphthalene-1,4′-pyran]-3-yl)carbonyl)glycine] displayed an IC50 of less than 100 nM.

The compound `CC1(C#N)C(=O)C(C(=O)NCC(=O)O)=C(O)c2ccc(Cl)cc21` (stereo not shown) [Example 129, 2-(7-chloro-1-cyano-4-hydroxy-1-methyl-2-oxo-1,2-dihydronaphthalene-3-carboxamido) acetic acid] came in with an IC50 of less than 100 nM.

Turning to `O=C(O)CNC(=O)C1=C(O)c2cc(Cl)ccc2[C@@]2(CCCO2)C1=O` [Example 73, N-(((2S)-6′-Chloro-4′-hydroxy-2′-oxo-4,5-dihydro-spiro[furan-2,1′-naphthalen]-3′-yl)carbonyl)glycine], the IC50 is less than 100 nM.

These data come from patent US7928139B2 (Amgen Inc., priority 2006, dated 2011).
